Here are results for one compound from patent publication US20210369860A1, “FUNCTIONALIZED NANOPARTICLE FORMULATIONS FOR ORAL DRUG DELIVERY” (THE REGENTS OF THE UNIVERSITY OF COLORAD, priority 2018, published 2021).

The conditions of this series: mouse, in vivo.

Regarding `CCCCCCCCCCCCCCCCCCN1C(=CC=CC=CC=CC2=[N+](CCCCCCCCCCCCCCCCCC)c3ccccc3C2(C)C)C(C)(C)c2ccccc21.[I-]` [free DIR, 1,1′-Dioctadecyl-3,3,3′,3′-Tetramethylindotricarbo-cyanine Iodide], the “IR signal in blood after IV injection” value is recorded as “no signal was seen”.
